Results on 14 compounds are retold here after US10308643B2, “Heterocyclic compound” (Takeda Pharmaceutical Company Limited, priority 2015, dated 2019).

What all share (type): biochemical
In assay [1] the target is T1, HDAC6 enzyme (Homo sapiens, UniProt Q9UBN7).
T1 construct: transducing full length HDAC1 and HDAC6 genes into Sf-9 insect cells; GST; purchased SignalChem; host or cells: Sf-9 insect cells
T1 sequence (Q9UBN7 1-1215): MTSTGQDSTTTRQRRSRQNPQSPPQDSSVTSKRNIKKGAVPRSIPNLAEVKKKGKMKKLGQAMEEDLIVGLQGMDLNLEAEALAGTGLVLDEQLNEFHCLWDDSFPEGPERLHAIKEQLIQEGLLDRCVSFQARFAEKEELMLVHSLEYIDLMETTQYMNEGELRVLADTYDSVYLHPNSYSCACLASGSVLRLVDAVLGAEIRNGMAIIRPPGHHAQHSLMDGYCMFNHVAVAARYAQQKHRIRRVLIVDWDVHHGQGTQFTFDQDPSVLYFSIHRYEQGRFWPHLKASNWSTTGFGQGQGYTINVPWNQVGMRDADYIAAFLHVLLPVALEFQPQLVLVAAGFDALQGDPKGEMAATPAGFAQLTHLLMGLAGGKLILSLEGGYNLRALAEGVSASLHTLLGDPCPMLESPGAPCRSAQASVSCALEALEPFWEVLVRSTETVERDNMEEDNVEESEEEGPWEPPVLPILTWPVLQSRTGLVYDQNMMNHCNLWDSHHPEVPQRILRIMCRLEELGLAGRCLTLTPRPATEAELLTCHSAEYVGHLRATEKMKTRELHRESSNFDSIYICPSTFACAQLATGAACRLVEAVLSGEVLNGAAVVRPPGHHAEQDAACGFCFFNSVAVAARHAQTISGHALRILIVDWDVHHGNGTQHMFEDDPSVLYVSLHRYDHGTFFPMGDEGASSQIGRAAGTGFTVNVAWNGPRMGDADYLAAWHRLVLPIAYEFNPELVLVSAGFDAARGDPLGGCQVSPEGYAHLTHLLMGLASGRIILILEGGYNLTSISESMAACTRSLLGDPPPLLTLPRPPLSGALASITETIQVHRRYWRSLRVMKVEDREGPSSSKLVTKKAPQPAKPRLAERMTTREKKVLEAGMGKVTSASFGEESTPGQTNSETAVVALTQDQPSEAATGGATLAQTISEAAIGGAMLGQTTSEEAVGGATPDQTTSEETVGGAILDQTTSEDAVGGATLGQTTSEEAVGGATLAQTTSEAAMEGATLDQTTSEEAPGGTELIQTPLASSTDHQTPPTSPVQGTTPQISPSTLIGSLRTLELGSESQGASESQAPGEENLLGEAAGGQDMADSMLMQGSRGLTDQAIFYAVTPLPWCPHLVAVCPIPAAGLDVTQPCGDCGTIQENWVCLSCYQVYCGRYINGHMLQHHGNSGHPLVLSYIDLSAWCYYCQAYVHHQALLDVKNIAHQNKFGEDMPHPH
In words: HDAC1/6 Enzyme Inhibitory Assay (HDAC-Glo I/II Assay kit), HDAC6. The conditions noted are these: 1 μM test compound; wells without enzyme = 100% inhibition; read-out: HDAC6 inhibitory rate (%) (1 μM). The procedure: (§1) HDAC1/6 Enzyme Inhibitory Assay
(§2) HDAC1 enzyme and HDAC6 enzyme each prepared by transducing full length HDAC1 and HDAC6 genes into Sf-9 insect cells and purifying by GST affinity column were purchased from SignalChem. Using these enzymes, HDAC1 and/or HDAC6 enzyme inhibitory activities of the compound of the present invention were evaluated. Enzymes were used after preserved at −70° C. HDAC1 or HDAC6 enzyme inhibitory activity of the compound of the present invention was measured using HDAC-Glo™ I/II Assay kit (Promega) according to the following experimental method. The test compound diluted with assay buffer (24 mM Tris-HCl (pH 7.5), 1 mM MgCl2, 0.35 mM KCl, 135 mM NaCl, 0.6 mM Glutathione, 0.01% Tween-20) was added to a 384-well plate by each 2 μL. Then, HDAC1 or HDAC6 enzyme solution diluted with assay buffer was added thereto by each 4 μL, and the plate was incubated at room temperature for 60 min. After incubated, HDAC substrate-Developer solution prepared according to Promega protocol attached to the assay kit was added to the 384-well plate by each 2 μL, and the enzyme reaction was started. After reacting at room temperature for 20 min, luminescence level was measured using plate reader Envision (PerkinElmer). The inhibitory activity of each compound was calculated as a relative activity value when luminescence level in wells without enzyme is considered as 100% inhibition.

Assay [2] deals with T2, HDAC9 enzyme (Homo sapiens, UniProt Q9UKV0).
T2 construct: transducing full length HDAC9 gene into Sf-9 insect cells; made in house; host or cells: Sf-9 insect cells
Briefly: HDAC9 Enzyme Inhibitory Assay (HDAC-Glo class IIa). The conditions noted are these: 1 μM test compound; wells without enzyme = 100% inhibition; read-out: HDAC9 inhibitory rate (%) (1 μM). The protocol:
HDAC9 Enzyme Inhibitory Assay
Enzyme was prepared by transducing full length HDAC9 gene into Sf-9 insect cells and purifying by Ni-NTA affinity column, and HDAC9 enzyme inhibitory activity was evaluated. Enzymes were used after preserved at −70° C. HDAC9 enzyme inhibitory activity of the test compound was measured using HDAC-Glo class IIa (Promega) according to the following experimental method. The test compound diluted with assay buffer (24 mM Tris-HCl (pH 7.5), 1 mM MgCl2, 0.35 mM KCl, 135 mM NaCl, 0.6 mM Glutathione, 0.01% Tween-20) was added to a 384-well plate by each 2 μL. Then, HDAC9 enzyme solution diluted with assay buffer was added thereto by each 2 μL, and the plate was incubated at room temperature for 60 min. After incubated, HDAC substrate-Developer solution prepared according to Promega protocol was added to the 384-well plate by each 4 μL, and the enzyme reaction was started. After reacting at room temperature for 20 min, luminescence level was measured using plate reader Envision (PerkinElmer). The inhibitory activity of each compound was calculated as a relative activity value when luminescence level in wells without enzyme is considered as 100% inhibition.

For assay [3], the target named is T3, HDAC1 enzyme (Homo sapiens, UniProt Q13547).
T3 construct: transducing full length HDAC1 and HDAC6 genes into Sf-9 insect cells; GST; purchased SignalChem; host or cells: Sf-9 insect cells
Briefly: HDAC1/6 Enzyme Inhibitory Assay (HDAC-Glo I/II Assay kit), HDAC1. The conditions noted are these: 1 μM test compound; wells without enzyme = 100% inhibition; read-out: HDAC1 inhibitory rate (%) (1 μM). The procedure:
as §1, §2

T2 sequence (Q9UKV0 whole entry, species assumed): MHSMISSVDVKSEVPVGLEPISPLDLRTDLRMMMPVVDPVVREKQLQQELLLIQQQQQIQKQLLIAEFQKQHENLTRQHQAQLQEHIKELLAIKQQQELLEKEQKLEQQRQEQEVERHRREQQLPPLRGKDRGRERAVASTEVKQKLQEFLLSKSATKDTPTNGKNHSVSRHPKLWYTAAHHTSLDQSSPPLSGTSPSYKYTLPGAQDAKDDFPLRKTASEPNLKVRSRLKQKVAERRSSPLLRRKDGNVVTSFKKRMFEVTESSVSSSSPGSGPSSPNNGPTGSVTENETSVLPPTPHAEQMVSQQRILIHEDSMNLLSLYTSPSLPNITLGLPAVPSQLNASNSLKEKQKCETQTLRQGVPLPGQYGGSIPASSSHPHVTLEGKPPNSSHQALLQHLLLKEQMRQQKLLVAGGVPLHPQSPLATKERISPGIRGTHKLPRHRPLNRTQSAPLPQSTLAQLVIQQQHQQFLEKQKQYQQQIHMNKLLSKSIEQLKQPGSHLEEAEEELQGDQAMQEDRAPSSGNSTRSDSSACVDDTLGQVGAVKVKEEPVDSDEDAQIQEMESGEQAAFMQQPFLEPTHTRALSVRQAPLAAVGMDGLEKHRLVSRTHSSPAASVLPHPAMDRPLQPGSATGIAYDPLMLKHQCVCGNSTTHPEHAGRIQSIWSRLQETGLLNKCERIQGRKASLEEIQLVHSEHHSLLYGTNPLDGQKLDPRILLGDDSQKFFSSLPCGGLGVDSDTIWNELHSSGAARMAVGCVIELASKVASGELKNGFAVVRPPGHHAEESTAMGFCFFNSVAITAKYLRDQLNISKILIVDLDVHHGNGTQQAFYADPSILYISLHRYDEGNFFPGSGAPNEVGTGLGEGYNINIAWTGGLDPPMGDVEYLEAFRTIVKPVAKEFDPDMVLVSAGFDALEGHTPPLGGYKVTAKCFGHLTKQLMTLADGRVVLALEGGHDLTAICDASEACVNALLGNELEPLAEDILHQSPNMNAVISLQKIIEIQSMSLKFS
T3 sequence (Q13547 whole entry): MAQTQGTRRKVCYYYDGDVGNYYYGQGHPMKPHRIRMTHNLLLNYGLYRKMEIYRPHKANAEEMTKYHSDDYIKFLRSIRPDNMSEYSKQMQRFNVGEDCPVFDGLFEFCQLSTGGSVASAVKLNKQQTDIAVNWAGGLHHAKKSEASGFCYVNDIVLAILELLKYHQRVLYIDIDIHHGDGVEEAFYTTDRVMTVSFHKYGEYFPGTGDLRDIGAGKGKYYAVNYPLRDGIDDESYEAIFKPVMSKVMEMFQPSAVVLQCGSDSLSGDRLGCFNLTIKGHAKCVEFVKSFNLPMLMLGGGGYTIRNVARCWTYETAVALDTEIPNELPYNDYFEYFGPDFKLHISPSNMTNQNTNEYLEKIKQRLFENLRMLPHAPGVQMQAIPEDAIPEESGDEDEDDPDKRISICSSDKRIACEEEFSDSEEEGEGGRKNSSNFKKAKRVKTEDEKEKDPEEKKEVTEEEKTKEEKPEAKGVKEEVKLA

Regarding `Cc1cc([C@@H]2CNCC[C@H]2N2Cc3ccc(-c4noc(C(F)(F)F)n4)cc3C2=O)ccc1Cl` (relative stereo) [Example 57, 2-(trans-3-(4-chloro-3-methylphenyl)piperidin-4-yl)-6-(5-(trifluoromethyl)-1,2,4-oxadiazol-3-yl)isoindolin-1-one], the values for the inhibition at 1 µM in assay [1], in assay [2] and in assay [3] were 94%, 99% and 93%, respectively.
The like results for `O=C1c2cc(-c3noc(C(F)(F)F)n3)ccc2CN1[C@H]1CCCC[C@@H]1N1CCOCC1` (relative stereo) [Example 59, 2-(trans-2-(morpholin-4-yl)cyclohexyl)-6-(5-(trifluoromethyl)-1,2,4-oxadiazol-3-yl)isoindolin-1-one] were, in that order, 97%, 91% and 60%.
For `O=C1c2cc(-c3noc(C(F)(F)F)n3)ccc2CN1[C@@H]1CC[C@@H]1Cc1ccccc1` (relative stereo) [Example 60, 2-(cis-2-benzylcyclobutyl)-6-(5-(trifluoromethyl)-1,2,4-oxadiazol-3-yl)isoindolin-1-one], the inhibition at 1 µM in assay [1] was 92%; in assay [2], 77%; in assay [3] it was 37%.
The like results for `O=C1c2cc(-c3noc(C(F)(F)F)n3)ccc2CN1[C@H]1C[C@@H]1c1ccccc1` (relative stereo) [Example 66, 2-(trans-2-phenylcyclopropyl)-6-(5-(trifluoromethyl)-1,2,4-oxadiazol-3-yl)isoindolin-1-one] were, in that order, 90%, 54% and 17%.
Regarding `CC(C)(C)OC(=O)N1CC[C@@H](c2ccccc2)[C@H](N2Cc3cc(-c4noc(C(F)(F)F)n4)ccc3C2=O)C1` (relative stereo) [Example 71, tert-butyl trans-3-(1-oxo-5-(5-(trifluoromethyl)-1,2,4-oxadiazol-3-yl)-1,3-dihydro-2H-isoindol-2-yl)-4-phenylpiperidine-1-carboxylate], the inhibition at 1 µM in assay [1] turned out to be 36%; in assay [2], 73%; in assay [3], 9%.
The like results for `O=C1c2ccc(-c3noc(C(F)(F)F)n3)cc2CN1[C@@H]1CNCC[C@H]1c1ccccc1` (relative stereo) [Example 72, trans-2-(4-phenylpiperidin-3-yl)-5-(5-(trifluoromethyl)-1,2,4-oxadiazol-3-yl)isoindolin-1-one] were, in that order, 90%, 80% and 32%.
The like results for `CC(=O)N1CC[C@@H](c2ccccc2)[C@H](N2Cc3cc(-c4noc(C(F)(F)F)n4)ccc3C2=O)C1` (relative stereo) [Example 73, trans-2-(1-acetyl-4-phenylpiperidin-3-yl)-5-(5-(trifluoromethyl)-1,2,4-oxadiazol-3-yl)isoindolin-1-one] were, in that order, 77%, 81% and 19%.
The like results for `CC(C)(C)OC(=O)N1CC[C@H](N2Cc3cc(-c4noc(C(F)(F)F)n4)ccc3C2=O)[C@H](c2ccccc2)C1` (relative stereo) [Example 78, tert-butyl cis-4-(1-oxo-5-(5-(trifluoromethyl)-1,2,4-oxadiazol-3-yl)-1,3-dihydro-2H-isoindol-2-yl)-3-phenylpiperidine-1-carboxylate] were, in that order, 11%, 76% and -3%.
Turning to `O=C1c2ccc(-c3noc(C(F)(F)F)n3)cc2CN1[C@H]1CCNC[C@H]1c1ccccc1` (relative stereo) [Example 79, cis-2-(3-phenylpiperidin-4-yl)-5-(5-(trifluoromethyl)-1,2,4-oxadiazol-3-yl)isoindolin-1-one], the inhibition at 1 µM in assay [1] was found to be 78%; in assay [2] it was 88%; in assay [3], 17%.
Turning to `CC(=O)N1CC[C@H](N2Cc3cc(-c4noc(C(F)(F)F)n4)ccc3C2=O)[C@H](c2ccccc2)C1` (relative stereo) [Example 80, cis-2-(1-acetyl-3-phenylpiperidin-4-yl)-5-(5-(trifluoromethyl)-1,2,4-oxadiazol-3-yl)isoindolin-1-one], the inhibition at 1 µM in assay [1] was determined as 76%; in assay [2], 97%; in assay [3], 13%.
The like results for `CC(C)(C)OC(=O)N1CC[C@@H](N2Cc3cc(-c4noc(C(F)(F)F)n4)ccc3C2=O)[C@H](c2ccccc2)C1` (relative stereo) [Example 135, tert-butyl-trans-4-(1-oxo-5-(5-(trifluoromethyl)-1,2,4-oxadiazol-3-yl)-1,3-dihydro-2H-isoindol-2-yl)-3-phenylpiperidine-1-carboxylate] were, in that order, 40%, 58% and -5%.
The like results for `O=C1c2ccc(-c3noc(C(F)(F)F)n3)cc2CN1[C@@H]1CCNC[C@H]1c1ccccc1` (relative stereo) [Example 136, trans-2-(3-phenylpiperidin-4-yl)-5-(5-(trifluoromethyl)-1,2,4-oxadiazol-3-yl)isoindolin-1-one] were, in that order, 94%, 82% and 39%.
In the case of `CC(=O)N1CC[C@@H](N2Cc3cc(-c4noc(C(F)(F)F)n4)ccc3C2=O)[C@H](c2ccccc2)C1` (relative stereo) [Example 137, trans-2-(1-acetyl-3-phenylpiperidin-4-yl)-5-(5-(trifluoromethyl)-1,2,4-oxadiazol-3-yl)isoindolin-1-one], the inhibition at 1 µM came to 89% in assay [1], 94% in assay [2] and 25% in assay [3].
The like results for `CC(C)(C)OC(=O)N[C@@H]1CCCC[C@@H]1N1Cc2ccc(-c3noc(C(F)(F)F)n3)cc2C1=O` (relative stereo) [Example 198, tert-butyl (cis-2-(1-oxo-6-(5-(trifluoromethyl)-1,2,4-oxadiazol-3-yl)-1,3-dihydro-2H-isoindol-2-yl)cyclohexyl)carbamate] were, in that order, 95%, 66% and 26%.
